Patent US11118200B2, “Method for preparing amines from aldehydes and ketones by biocatalysis” (COMMISSARIAT A L'ENERGIE ATOMIQUE ET AUX ENERGIES …, priority 2017, dated 2021)
Marks after values point to notes of the source that are not given here.

Experiments:
Experiment in all cases: Screening of carbonyl-containing compounds with ammonia as amine source (specific activity, absorbance at 340 nm)
enzyme of SEQ ID NO:4 = type: biochemical, Aminomonas paucivorans DSM 12260; design: key to Detection of the expected compound, SEQ ID NO: 4: d: detected activity; nd: not detected activity; details: ammonia as amine source; for Specific activity, SEQ ID NO: 4: 0.2 mM NADH (best of NADH/NADPH), 10 mM of carbonyl-containing compound; for Detection of the expected compound, SEQ ID NO: 4: pH 9.5, 25° C.
Description: (§1) All the reactions were conducted at 25° C. in spectrophotometric cell (10 mm light path). To a mixture of ammonium formate buffer (2 M NH4HCO2/NH4OH, pH 9.5), NADH or NADPH (0.2 mM) and an appropriate amount of purified enzyme was added. Carbonyl-containing compound (5 or 10 mM) is then added to initiate the reaction (reaction final volume 100 μL). The initial slope measured at 340 nm determined the specific activity of the enzyme according to Beer-Lambert's law and the molar absorptivity of β-NADH (ϵ=6298 M^−1 cm^−1).

enzyme of SEQ ID NO:1 = type: biochemical, Mycobacterium smegmatis; details: 0.2 mM NADPH (best of NADH/NADPH); 10 mM of carbonyl-containing compound; ammonia as amine source
Description: (§2) All the reactions were conducted at 25° C. in spectrophotometric cell (10 mm light path). To a mixture of ammonium formate buffer (2 M NH4HCO2/NH4OH, pH 9.5), NADH or NADPH (0.2 mM) and an appropriate amount of purified enzyme was added.

enzyme of SEQ ID NO:2 = type: biochemical, Cystobacter fuscus DSM 2262; details: 10 mM of carbonyl-containing compound, ammonia as amine source
Description: as §2

enzyme of SEQ ID NO:3 = type: biochemical, Microbacterium sp. MA1; details: 10 mM of carbonyl-containing compound, ammonia as amine source
Description: as §2

enzyme of SEQ ID NO:5 = type: biochemical, Mycobacterium vaccae ATCC 25954; details: mixture NADH/NADPH (0.1 mM each), 5 mM of carbonyl-containing compound
Description: as §1, with “To a mixture of ammonium formate buffer (2 M NH4HCO2/NH4OH, pH 9.5), NADH or NADPH (0.2 mM) and an appropriate amount of purified enzyme was added.” left out

enzyme of SEQ ID NO:6 = type: biochemical, Mycobacterium sp. GA-2829; details: mixture NADH/NADPH (0.1 mM each), 10 mM of carbonyl-containing compound
Description: as §1, with “To a mixture of ammonium formate buffer (2 M NH4HCO2/NH4OH, pH 9.5), NADH or NADPH (0.2 mM) and an appropriate amount of purified enzyme was added.” left out

[1] = 0.2 mM NADPH (best of NADH/NADPH)
[2] = 0.2 mM NADH (best of NADH/NADPH)

SMILES: CCCCC=O [drawing 122]
- Specific activity, SEQ ID NO: 4 (enzyme of SEQ ID NO:4): 89.1^a mU.mg^-1
- Detection of the expected compound, SEQ ID NO: 4 (enzyme of SEQ ID NO:4): d

SMILES: CCC(C)C=O (stereo not shown) [drawing 124]
- Specific activity, SEQ ID NO: 4 (enzyme of SEQ ID NO:4): 129.6^a mU.mg^-1
- Detection of the expected compound, SEQ ID NO: 4 (enzyme of SEQ ID NO:4): d

SMILES: CCCC(C)=O [drawing 142]
- Specific activity, SEQ ID NO: 1 (enzyme of SEQ ID NO:1): 9.0^b mU.mg^-1
- Specific activity, SEQ ID NO: 2 (enzyme of SEQ ID NO:2; [1]): 6.4^b mU.mg^-1
- Specific activity, SEQ ID NO: 3 (enzyme of SEQ ID NO:3; [1]): 51.2^b mU.mg^-1

SMILES: CCCCC=O [drawing 146]
- Specific activity, SEQ ID NO: 1 (enzyme of SEQ ID NO:1): 26.8^b mU.mg^-1
- Specific activity, SEQ ID NO: 2 (enzyme of SEQ ID NO:2; [1]): 72.9^b mU.mg^-1
- Specific activity, SEQ ID NO: 3 (enzyme of SEQ ID NO:3; [1]): 57.8^b mU.mg^-1

SMILES: CCC(C)C=O (stereo not shown) [drawing 148]
- Specific activity, SEQ ID NO: 1 (enzyme of SEQ ID NO:1): 75.2^b mU.mg^-1
- Specific activity, SEQ ID NO: 2 (enzyme of SEQ ID NO:2; [2]): 231.9^a mU.mg^-1
- Specific activity, SEQ ID NO: 3 (enzyme of SEQ ID NO:3; [2]): 159.4^a mU.mg^-1

SMILES: O=C1CCCCC1 [drawing 168]
- Specific activity, SEQ ID NO: 5 (enzyme of SEQ ID NO:5): 75.6 mU.mg^-1
- Specific activity, SEQ ID NO: 6 (enzyme of SEQ ID NO:6): 13.9 mU.mg^-1

SMILES: CCCC(C)=O [drawing 170]
- Specific activity, SEQ ID NO: 5 (enzyme of SEQ ID NO:5): 6.1 mU.mg^-1
